Source: patent US7960130B2, “Method for activation of transient receptor potential cation channel, subfamily A, member 1 using acetaldehyde” (Korea University Industry and Academy Cooperation Foundation, priority 2008, dated 2011)
pEC50: −log10 of the molar value. “Also recorded” adds a separate entry of the source.

Columns and labels:
[1] = test system: ICR mice; experiment: Acute hindpaw licking/flicking behavioral analysis; conditions: 10 min
Experimental: This analysis was performed in accordance with protocols approved by the University Committee on Laboratory Animals. Mice were acclimated for 1 h to the test environment prior to experiments. Drugs dissolved in vehicle (PBS containing 0.5% Tween 80) were injected into mice right hindpaws intradermally.

[2] = molecular target: T1, TRPM8 (Mus musculus, UniProt Q8R4D5); experiment: Calcium imaging of TRP transfected cell lines treated with acetaldehyde (TRPM8); assay type: cell-based; conditions: 1 mM acetaldehyde
T1 construct: expressed in transfected cells; host or cells: HEK293T (ATCC CRL-11268), pcDNA5/FRT
T1 sequence (Q8R4D5 whole entry): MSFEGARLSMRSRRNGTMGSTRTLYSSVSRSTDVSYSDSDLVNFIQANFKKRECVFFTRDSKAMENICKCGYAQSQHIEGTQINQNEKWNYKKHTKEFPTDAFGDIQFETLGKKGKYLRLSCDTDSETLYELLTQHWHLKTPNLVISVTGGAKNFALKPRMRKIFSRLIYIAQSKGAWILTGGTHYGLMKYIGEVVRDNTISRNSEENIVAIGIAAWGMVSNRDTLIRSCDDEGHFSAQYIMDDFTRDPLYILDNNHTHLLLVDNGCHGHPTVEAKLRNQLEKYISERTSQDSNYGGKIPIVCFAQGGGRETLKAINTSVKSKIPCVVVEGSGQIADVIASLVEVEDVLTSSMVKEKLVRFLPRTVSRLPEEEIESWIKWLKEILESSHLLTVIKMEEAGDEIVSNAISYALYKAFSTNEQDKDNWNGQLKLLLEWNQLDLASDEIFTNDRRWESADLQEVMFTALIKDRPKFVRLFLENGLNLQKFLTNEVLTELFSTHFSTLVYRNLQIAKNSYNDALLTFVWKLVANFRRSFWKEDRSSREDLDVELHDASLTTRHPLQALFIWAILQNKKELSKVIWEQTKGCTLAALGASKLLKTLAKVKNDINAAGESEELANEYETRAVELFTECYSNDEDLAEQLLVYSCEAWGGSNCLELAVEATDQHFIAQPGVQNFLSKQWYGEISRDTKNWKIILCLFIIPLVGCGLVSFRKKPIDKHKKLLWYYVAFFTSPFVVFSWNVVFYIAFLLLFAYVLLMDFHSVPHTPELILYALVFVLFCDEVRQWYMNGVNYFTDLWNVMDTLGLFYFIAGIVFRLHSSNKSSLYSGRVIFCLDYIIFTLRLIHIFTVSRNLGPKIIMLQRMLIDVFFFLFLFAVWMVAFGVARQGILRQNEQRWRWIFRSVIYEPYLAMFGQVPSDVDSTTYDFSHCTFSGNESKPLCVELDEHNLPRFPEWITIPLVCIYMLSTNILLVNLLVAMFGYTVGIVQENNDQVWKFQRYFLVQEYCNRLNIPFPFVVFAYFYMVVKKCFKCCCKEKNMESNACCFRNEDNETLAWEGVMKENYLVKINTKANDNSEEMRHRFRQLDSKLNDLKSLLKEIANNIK
Source text: (§1) HEK293T cell line (ATCC CRL-11268) was transiently transfected with plasmid DNA containing polynucleotide encoding hTRPA1 (SEQ. ID. NO: 1), rTRPV2 (SEQ. ID. NO: 2), rTRPV1 (SEQ. ID. NO: 3), mTRPV4 (SEQ. ID. NO: 4), mTRPA1 (SEQ. ID. NO: 5), hTRPV3 (SEQ. ID. NO: 6) or mTRPM8 (SEQ. ID. NO: 7).
(§2) Particularly, the HEK293T cell line was transiently transfected with individual TRP channel plasmid (pcDNA3.1 containing polynucleotide encoding hTRPA1, rTRPV2, rTRPV1 or mTRPV4; pcDNA5/FRT containing polynucleotide encoding mTRPA1, hTRPV3 or mTRPM8) 3 μg per 35-mm dish and 600 ng/well of pcDNA3 (Invitrogen Corp., USA; containing green fluorescent protein (GFP) cDNA) using Fugene6 (Roche Diagnostics, USA) according to manufacturer's instruction. The transformed cells were cultured in DMEM/F12 containing 10% FBS and 1% penicillin/streptomycin in a CO2 incubator for 24 hours. The cells were replated onto poly-L-lysine-coated glass coverslips, followed by further culture for 10-24 hours.
(§3) Particularly, the transfected cell line of Example <4-1> was loaded with Fluo-3AM (5 μM; Sigma Aldrich, USA) in the bath solution (140 mM NaCl, 5 mM KCl, 2 mM CaCl2, 1 mM MgCl2, 10 mM HEPES; adjusted to pH 7.4 with NaOH) containing 0.02% pluronic acid (Invitrogen, USA). […]

[3] = molecular target: T2, TRPV1 (Rattus norvegicus, UniProt O35433); experiment: Calcium imaging of TRP transfected cell lines treated with acetaldehyde (TRPV1); assay type: cell-based; conditions: 1 mM acetaldehyde
T2 construct: expressed in transfected cells; host or cells: HEK293T (ATCC CRL-11268), pcDNA3.1
T2 sequence (O35433 whole entry): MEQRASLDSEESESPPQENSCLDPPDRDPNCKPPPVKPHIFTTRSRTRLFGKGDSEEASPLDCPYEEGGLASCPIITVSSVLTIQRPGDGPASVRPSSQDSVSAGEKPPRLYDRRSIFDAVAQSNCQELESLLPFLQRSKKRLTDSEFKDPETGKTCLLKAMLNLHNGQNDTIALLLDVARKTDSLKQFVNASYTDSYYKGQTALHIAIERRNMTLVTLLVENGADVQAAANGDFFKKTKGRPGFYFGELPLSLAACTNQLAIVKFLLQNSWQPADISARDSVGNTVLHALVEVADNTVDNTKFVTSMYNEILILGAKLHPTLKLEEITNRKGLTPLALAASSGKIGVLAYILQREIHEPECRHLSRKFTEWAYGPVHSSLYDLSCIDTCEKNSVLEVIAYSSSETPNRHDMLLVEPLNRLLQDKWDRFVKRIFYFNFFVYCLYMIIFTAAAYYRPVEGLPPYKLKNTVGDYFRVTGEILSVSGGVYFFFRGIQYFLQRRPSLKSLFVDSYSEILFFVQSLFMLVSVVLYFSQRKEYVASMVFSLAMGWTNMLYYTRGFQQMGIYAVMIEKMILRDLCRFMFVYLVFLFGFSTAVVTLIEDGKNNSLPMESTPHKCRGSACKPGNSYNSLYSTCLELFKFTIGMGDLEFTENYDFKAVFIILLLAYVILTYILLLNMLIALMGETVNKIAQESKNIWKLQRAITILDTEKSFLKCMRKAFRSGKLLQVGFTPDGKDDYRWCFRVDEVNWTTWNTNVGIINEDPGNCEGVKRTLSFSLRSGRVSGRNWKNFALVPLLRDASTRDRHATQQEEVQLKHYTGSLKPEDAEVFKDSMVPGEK
Source text: as §1, §2, §3

[4] = test system: trigeminal neurons; experiment: Whole-cell voltage-clamp recording of cultured trigeminal neurons; assay type: cell-based, mouse; conditions: 1 mM acetaldehyde, n=6
Experimental: Trigeminal ganglia were dissected out of decapitated adult ICR mice in cold PBS and treated with 1.5 mg/Ml of collagenase/dispase (Roche Diagnostics, USA) at 37 °C for 45 min, and then treated with 0.25% trypsin (Invitrogen, USA) for 15 min. The trigeminal neurons prepared thereby were then plated onto poly-L-lysine-coated coverslips in DMEM/F12 containing 10% FBS, 1% penicillin/streptomycin and 5 ng/Ml of 2.5S NGF (Invitrogen, USA), nerve growth factor (Invitrogen), followed by culture in a CO2 incubator for 48-72 hours.
Particularly, the extracellular solution (140 mM NaCl, 5 mM KCl, 2 mM CaCl2, 1 mM MgCl2, 10 mM HEPES; titrated to pH 7.4 with NaOH) and the pipette solution (140 mM CsCl, 5 mM EGTA, 10 mM HEPES, 2.0 mM MgATP, 0.2 mM NaGTP; titrated to pH 7.2 with CsOH) were used. The potential was holded at −60 mV for 250 ms, voltage-ramp pulsed from −80 mV to +80 mV for […] and returned to −60 mV for 250 ms, which was repeated without intersweep. This experiment was repeated 5 times.
The trigeminal neurons prepared by the same manner as described in Example 2 were delayed-treated with 1 mM acetaldehyde, followed by treatment of 20 μM GdCl3 (a TRPA1 blocker gadolinium; Sigma-Aldrich, USA) and 2 mM camphor. Then, whole-cell voltage-clamp recording was performed by the same manner as described in Example <5-2>.

[5] = molecular target: T3, mTRPA1 (Mus musculus, UniProt Q8BLA8); experiment: Fluo-3 calcium imaging of mTRPA1-transfected HEK293T cells; assay type: cell-based
T3 construct: expressed in transfected cells; host or cells: HEK293T (ATCC CRL-11268), pcDNA5/FRT
T3 sequence (Q8BLA8 whole entry): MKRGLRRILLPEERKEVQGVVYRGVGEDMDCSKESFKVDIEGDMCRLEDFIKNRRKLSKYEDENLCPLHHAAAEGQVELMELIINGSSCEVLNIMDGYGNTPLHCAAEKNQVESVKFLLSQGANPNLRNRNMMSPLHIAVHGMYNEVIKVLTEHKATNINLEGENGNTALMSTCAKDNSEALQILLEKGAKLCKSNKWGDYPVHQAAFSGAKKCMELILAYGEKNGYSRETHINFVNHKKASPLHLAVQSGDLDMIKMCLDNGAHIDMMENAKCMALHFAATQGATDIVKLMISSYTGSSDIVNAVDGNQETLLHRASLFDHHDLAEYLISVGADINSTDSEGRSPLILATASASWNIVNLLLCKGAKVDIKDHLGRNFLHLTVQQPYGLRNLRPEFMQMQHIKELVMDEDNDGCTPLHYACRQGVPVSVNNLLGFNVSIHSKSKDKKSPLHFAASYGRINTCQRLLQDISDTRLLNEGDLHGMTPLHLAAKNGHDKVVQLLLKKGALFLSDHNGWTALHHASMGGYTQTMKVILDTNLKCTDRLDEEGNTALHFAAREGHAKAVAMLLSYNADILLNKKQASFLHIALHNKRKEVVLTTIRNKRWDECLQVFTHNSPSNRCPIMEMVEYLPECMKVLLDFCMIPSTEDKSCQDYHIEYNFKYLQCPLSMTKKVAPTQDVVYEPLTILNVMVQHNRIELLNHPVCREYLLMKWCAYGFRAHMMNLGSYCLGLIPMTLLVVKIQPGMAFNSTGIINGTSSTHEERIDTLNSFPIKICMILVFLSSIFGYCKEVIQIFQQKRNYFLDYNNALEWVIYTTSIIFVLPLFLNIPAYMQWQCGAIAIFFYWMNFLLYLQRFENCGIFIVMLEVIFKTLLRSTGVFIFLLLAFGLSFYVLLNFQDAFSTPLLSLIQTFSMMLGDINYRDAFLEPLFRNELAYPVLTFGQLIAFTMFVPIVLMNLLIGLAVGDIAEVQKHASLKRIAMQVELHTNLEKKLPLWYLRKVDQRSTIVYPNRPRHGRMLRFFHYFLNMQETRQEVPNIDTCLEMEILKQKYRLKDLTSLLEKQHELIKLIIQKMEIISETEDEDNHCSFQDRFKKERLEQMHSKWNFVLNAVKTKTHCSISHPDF
Experimental: as §2
(§4) Calcium imaging was performed with a confocal microscope (LSM5 Pascal, Carl Zeiss, Germany), and time-lapse images (488 nm excitation/514 nm emission) were collected every 3 seconds using Carl Zeiss ratio tool software (Carl Zeiss, Germany).
(§5) Stock solutions were made using water or ethanol, and were diluted with test solutions before use.

[6] = molecular target: T4, hTRPA1 (Homo sapiens, UniProt O75762); experiment: Fluo-3 calcium imaging of hTRPA1-transfected HEK293T cells; assay type: cell-based
T4 construct: expressed in transfected cells; host or cells: HEK293T (ATCC CRL-11268), pcDNA3.1
T4 sequence (O75762 whole entry): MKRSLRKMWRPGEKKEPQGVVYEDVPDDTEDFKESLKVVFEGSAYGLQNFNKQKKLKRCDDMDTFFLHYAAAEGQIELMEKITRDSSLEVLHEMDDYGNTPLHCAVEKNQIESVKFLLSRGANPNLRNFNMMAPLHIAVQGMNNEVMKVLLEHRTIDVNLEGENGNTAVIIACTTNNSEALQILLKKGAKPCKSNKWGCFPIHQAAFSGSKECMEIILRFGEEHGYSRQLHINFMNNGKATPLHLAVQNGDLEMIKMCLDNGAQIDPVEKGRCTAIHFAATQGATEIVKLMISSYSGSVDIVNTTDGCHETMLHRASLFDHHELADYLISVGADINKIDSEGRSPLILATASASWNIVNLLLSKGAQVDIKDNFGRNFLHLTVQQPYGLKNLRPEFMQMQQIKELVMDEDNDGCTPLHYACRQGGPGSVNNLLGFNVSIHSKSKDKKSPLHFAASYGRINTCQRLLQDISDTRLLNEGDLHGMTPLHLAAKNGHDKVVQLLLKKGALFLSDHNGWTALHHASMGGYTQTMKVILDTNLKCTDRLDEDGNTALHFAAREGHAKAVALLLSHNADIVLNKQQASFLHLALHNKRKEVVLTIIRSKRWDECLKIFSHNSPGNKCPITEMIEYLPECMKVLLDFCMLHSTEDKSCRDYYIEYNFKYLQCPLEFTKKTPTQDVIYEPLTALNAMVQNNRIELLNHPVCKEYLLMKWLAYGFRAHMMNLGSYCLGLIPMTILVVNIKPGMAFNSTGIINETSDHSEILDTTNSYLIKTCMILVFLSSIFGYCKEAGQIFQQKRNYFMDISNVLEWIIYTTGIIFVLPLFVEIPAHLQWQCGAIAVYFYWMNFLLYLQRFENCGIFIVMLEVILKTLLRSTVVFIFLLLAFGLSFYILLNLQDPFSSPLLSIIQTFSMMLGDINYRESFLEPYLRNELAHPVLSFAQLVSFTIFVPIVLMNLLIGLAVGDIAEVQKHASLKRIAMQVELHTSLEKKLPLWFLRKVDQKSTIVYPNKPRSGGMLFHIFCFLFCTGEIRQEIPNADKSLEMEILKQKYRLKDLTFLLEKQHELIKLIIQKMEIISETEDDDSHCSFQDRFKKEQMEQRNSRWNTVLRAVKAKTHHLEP
Experimental: as §2, §5, §4, §5

[7] = test system: TRPA1; experiment: Whole-cell voltage-clamp recording of TRPA1 transfected cell line; assay type: cell-based; conditions: 1 mM acetaldehyde, 300 μM cinnamaldehyde, voltage ramp -80 to +80 mV, n=5
Experimental: as §2, §5
This experiment was repeated 5 times.

[8] = test system: trigeminal neurons; experiment: Fluo-3 calcium imaging of cultured mouse trigeminal neurons
[9] = acetaldehyde 1 to 10^4 μM, Fluo-3 calcium imaging

## CC=O [acetaldehyde]
[1]; 1 mM, 10 mM, 100 mM acetaldehyde intradermal
  dose dependence of acetaldehyde-induced nociceptive behaviors: increased in a dose-dependent manner
[1]; intradermal into hindpaw, 10 μl, 100 mM acetaldehyde or 10 mM cinnamaldehyde, n=5
  acute hindpaw licking/flicking behavior elicited: elicited acute licking or flicking behavior
[2]
  activation of TRPM8 by acetaldehyde: only TRPA1 was activated
[3]
  activation of TRPV1 by acetaldehyde: only TRPA1 was activated
[4]
  current increase in trigeminal neurons: increased current
[5]
  pEC50: 2.92
[5]; [9]
  n of dose-response curve (Hill plot) on mTRPA1: 3.1
[5]; dose-response, calcium imaging
  maximum efficacy in mTRPA1 responses compared with hTRPA1: greater maximum efficacy
[6]
  pEC50: 4.12
[6]; 1 mM acetaldehyde, 300 μM cinnamaldehyde, 10 mM acetic acid, 1% methanol, 1% ethanol
  elevation of intracellular calcium levels in hTRPA1-expressing cells: TRPA1-specific responses; also recorded: responded
[6]; [9]
  n of dose-response curve (Hill plot) on hTRPA1: 2.4
[7]
  whole-cell current response in TRPA1 expressing cells: pronounced outwardly rectifying current occurred
[8]; 1 mM acetaldehyde, n=19
  acetaldehyde response of capsaicin-cinnamaldehyde-positive neurons: did response
[8]; 1 mM acetaldehyde, n=36, considered to express TRPM8
  acetaldehyde response of menthol-positive neurons: did not show response
[8]; 1 mM acetaldehyde, n=102, considered to express TRPV1
  acetaldehyde response of capsaicin-positive/cinnamaldehyde-negative neurons: did not show response
[8]; Mus musculus, Neuron, read-out: EC50 of acetaldehyde alone (Kd of dose-response curve) in trigeminal neurons
  pEC50: 3.13
[8]; acetaldehyde + 1 μM PGE2
  maximum efficacy heightened with PGE2 versus acetaldehyde alone: 1.2 fold
